Measurements as given in ChEMBL document CHEMBL1201862, “PubChem BioAssay data set” (2004).
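Grown in 96-well plates, cells were treated for 48 hours with each compound at five concentrations. Insufficient inhibition: endpoint recorded as highest concentration tested. At the GI50, growth is halved.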 The source made the active and inactive calls. Cut-off read from the data, not from the text of the source: active = GI50 up to about 1.1 µM and inactive = higher. *1 amine or outer side, *2 acyl side, *3 side chain or, on linkers, in order; H or OH if unused. Where a SMILES comes first, the peptide text is derived from it. Bridges are numbered along the chain shown (N, C = ends). [ ]: non-standard residue; d: D form. X36 = CC[C@H](C)[C@@H](N[*:1])[C@@H](O)CC(=O)O[C@H](C(=O)[C@H](C)C(=O)[*:2])C(C)C; NMeY = CN[C@@H](Cc1ccc(O)cc1)C(=O)O

Legend:
Assay in all cases: growth of human tumour cells (NCI), 48 h
HCT-116 = system: HCT-116
NCI-H460 = system: NCI-H460
SNB-19 = system: SNB-19
NCI-H522 = system: NCI-H522
OVCAR-3 = system: OVCAR-3
NCI-H23 = system: NCI-H23
SN12C = system: SN12C
SF-295 = system: SF-295
BT-549 = system: BT-549
T47D = system: T47D
LOX IMVI = system: LOX IMVI
NCI/ADR-RES = system: NCI/ADR-RES
PC-3 = system: PC-3
COLO 205 = system: COLO 205
786-0 = system: 786-0
SK-MEL-5 = system: SK-MEL-5
U-251 = system: U-251
ACHN = system: ACHN
MDA-N = system: MDA-N

| Compound | GI50 (HCT-116) | GI50 (NCI-H460) | GI50 (SNB-19) | GI50 (NCI-H522) | GI50 (OVCAR-3) | GI50 (NCI-H23) | GI50 (SN12C) | GI50 (SF-295) | GI50 (BT-549) | GI50 (T47D) | GI50 (LOX IMVI) | GI50 (NCI/ADR-RES) | GI50 (PC-3) | GI50 (COLO 205) | GI50 (786-0) | GI50 (SK-MEL-5) | GI50 (U-251) | GI50 (ACHN) | GI50 (MDA-N) |
| --- | --- | --- | --- | --- | --- | --- | --- | --- | --- | --- | --- | --- | --- | --- | --- | --- | --- | --- | --- |
| CN(C)c1nc(N)nc(CCl)n1 | 54.8 µM (inactive) | 32.7 µM (inactive) | > 100 µM (inactive) | 10.9 µM (inactive) | 17.5 µM (inactive) | 24.5 µM (inactive) | 43.4 µM (inactive) | 30.8 µM (inactive) | 40 µM (inactive) | 60.4 µM (inactive) | 7.87 µM (inactive) | 22 µM (inactive) | 74.8 µM (inactive) | 29.2 µM (inactive) | 22.3 µM (inactive) | 29.5 µM (inactive) | 35.2 µM (inactive) | 15.8 µM (inactive) | – |
| O=C(O)c1ccc(CI)cc1 | 14.5 µM (inactive) | 15.6 µM (inactive) | 13.8 µM (inactive) | 3.9 µM (inactive) | 11.2 µM (inactive) | 12.7 µM (inactive) | 17 µM (inactive) | 7.82 µM (inactive) | – | 25 µM (inactive) | – | 16.1 µM (inactive) | 15.1 µM (inactive) | 15.4 µM (inactive) | 3.24 µM (inactive) | 17 µM (inactive) | 7.85 µM (inactive) | 15.7 µM (inactive) | 15.5 µM (inactive) |
| CC1(C)COC(c2cccc(C3=NC(C)(C)CO3)c2)=N1 | > 100 µM (inactive) | > 100 µM (inactive) | > 100 µM (inactive) | – | 0.0375 µM (active) | > 100 µM (inactive) | – | – | > 100 µM (inactive) | 3.75 µM (inactive) | > 100 µM (inactive) | > 100 µM (inactive) | > 100 µM (inactive) | > 100 µM (inactive) | > 100 µM (inactive) | > 100 µM (inactive) | > 100 µM (inactive) | > 100 µM (inactive) | – |
| CC(C)(CO)NC(=O)c1cccs1 | > 100 µM (inactive) | > 100 µM (inactive) | > 100 µM (inactive) | > 100 µM (inactive) | > 100 µM (inactive) | > 100 µM (inactive) | > 100 µM (inactive) | > 100 µM (inactive) | – | > 100 µM (inactive) | > 100 µM (inactive) | > 100 µM (inactive) | > 100 µM (inactive) | > 100 µM (inactive) | > 100 µM (inactive) | > 100 µM (inactive) | > 100 µM (inactive) | > 100 µM (inactive) | – |
| CN(C)/C=N/S(=O)(=O)c1nn2c(C=O)c(-c3ccc(Cl)cc3)nc2s1 | 0.693 µM (active) | 6.28 µM (inactive) | 14.3 µM (inactive) | 0.557 µM (active) | 1.49 µM (inactive) | 2.34 µM (inactive) | 2.23 µM (inactive) | 14.4 µM (inactive) | 0.713 µM (active) | 1.67 µM (inactive) | 1.25 µM (inactive) | 2.22 µM (inactive) | 2.46 µM (inactive) | 1.28 µM (inactive) | 1.25 µM (inactive) | 1.58 µM (inactive) | 2.95 µM (inactive) | 1.15 µM (inactive) | – |
| CCOC(=O)c1nc2ccc(C(F)(F)F)cc2nc1Nc1ccc(OC)cc1 | 56.4 µM (inactive) | 41.1 µM (inactive) | 33.6 µM (inactive) | 36.5 µM (inactive) | 27.7 µM (inactive) | 49.1 µM (inactive) | – | 26.9 µM (inactive) | 27.9 µM (inactive) | > 100 µM (inactive) | > 100 µM (inactive) | 63.2 µM (inactive) | 49.7 µM (inactive) | > 100 µM (inactive) | 25.8 µM (inactive) | 54.7 µM (inactive) | 27.5 µM (inactive) | 55 µM (inactive) | – |
| CCOC(=O)C(NC(=O)c1cccc(Cl)c1)(Nc1ccc(S(=O)(=O)Nc2cc(C)nc(C)n2)cc1)C(F)(F)F (stereo unspecified) | > 100 µM (inactive) | > 100 µM (inactive) | > 100 µM (inactive) | > 100 µM (inactive) | > 100 µM (inactive) | > 100 µM (inactive) | > 100 µM (inactive) | > 100 µM (inactive) | – | > 100 µM (inactive) | > 100 µM (inactive) | > 100 µM (inactive) | > 100 µM (inactive) | > 100 µM (inactive) | > 100 µM (inactive) | > 100 µM (inactive) | > 100 µM (inactive) | > 100 µM (inactive) | – |
| Cc1c(NC(=O)CCl)c(=O)oc2c(C)c3occc(=O)c3cc12 | 11.6 µM (inactive) | 10.7 µM (inactive) | 15.8 µM (inactive) | – | – | – | – | 12.6 µM (inactive) | – | 14 µM (inactive) | – | 18.6 µM (inactive) | – | 14.3 µM (inactive) | 13.9 µM (inactive) | 10.9 µM (inactive) | 14.4 µM (inactive) | 16.6 µM (inactive) | 16.1 µM (inactive) |
| CSCCC(NCc1c(O)ccc2c(-c3ccccc3)cc(=O)oc12)C(=O)O (stereo unspecified) | > 100 µM (inactive) | > 100 µM (inactive) | > 100 µM (inactive) | > 100 µM (inactive) | > 100 µM (inactive) | > 100 µM (inactive) | > 100 µM (inactive) | > 100 µM (inactive) | – | > 100 µM (inactive) | > 100 µM (inactive) | > 100 µM (inactive) | > 100 µM (inactive) | > 100 µM (inactive) | > 100 µM (inactive) | > 100 µM (inactive) | > 100 µM (inactive) | > 100 µM (inactive) | > 100 µM (inactive) |
| O=C(/N=C1\SCCN1C(=O)C(C(F)(F)F)C(F)(F)F)C(C(F)(F)F)C(F)(F)F | > 100 µM (inactive) | > 100 µM (inactive) | > 100 µM (inactive) | > 100 µM (inactive) | > 100 µM (inactive) | > 100 µM (inactive) | – | > 100 µM (inactive) | – | – | > 100 µM (inactive) | > 100 µM (inactive) | > 100 µM (inactive) | > 100 µM (inactive) | > 100 µM (inactive) | > 100 µM (inactive) | > 100 µM (inactive) | > 100 µM (inactive) | – |
| COC(=O)c1cc2c(cc1Cl)Sc1nnc(Nc3ccccc3)n1S2(=O)=O | 3.61 µM (inactive) | 10 µM (inactive) | 2.28 µM (inactive) | 1.68 µM (inactive) | 1.75 µM (inactive) | 2.34 µM (inactive) | 6.31 µM (inactive) | 3.78 µM (inactive) | 4.46 µM (inactive) | 1.59 µM (inactive) | 7.98 µM (inactive) | 8.47 µM (inactive) | 3.08 µM (inactive) | 6.52 µM (inactive) | 4.18 µM (inactive) | 7.96 µM (inactive) | 2.76 µM (inactive) | 1.8 µM (inactive) | – |
| S=C=Nc1ccc(CSc2nc3ccccc3[nH]2)cc1 | 24 µM (inactive) | 20.8 µM (inactive) | 25.9 µM (inactive) | 4.25 µM (inactive) | – | 17.6 µM (inactive) | 17.5 µM (inactive) | 17.3 µM (inactive) | – | 15.2 µM (inactive) | 17.2 µM (inactive) | 18 µM (inactive) | 17.9 µM (inactive) | 15.5 µM (inactive) | 19.9 µM (inactive) | 15.9 µM (inactive) | 17.1 µM (inactive) | 14.3 µM (inactive) | 15.9 µM (inactive) |
| CCOC(=O)/C=C(/N=P(c1ccccc1)(c1ccccc1)c1ccccc1)C(F)(F)F | > 10 µM (inactive) | > 10 µM (inactive) | > 10 µM (inactive) | 61.9 µM (inactive) | > 10 µM (inactive) | > 10 µM (inactive) | > 10 µM (inactive) | > 10 µM (inactive) | – | 22.1 µM (inactive) | > 10 µM (inactive) | > 10 µM (inactive) | > 10 µM (inactive) | > 10 µM (inactive) | > 10 µM (inactive) | > 10 µM (inactive) | – | > 10 µM (inactive) | > 10 µM (inactive) |
| CC[C@H](C)[C@H]1NC(=O)[C@@H](N)[C@@H](C)OC(=O)[C@H](Cc2ccc(OC)cc2)N(C)C(=O)[C@@H]2CCCN2C(=O)[C@H](CC(C)C)NC(=O)[C@@H](C)C(=O)[C@H](C(C)C)OC(=O)C[C@@H]1O (H-T[X36]LP[NMeY](Me); ester 1-C) | – | 30.3 µM (inactive) | 28.7 µM (inactive) | 10.5 µM (inactive) | 20.6 µM (inactive) | 35.4 µM (inactive) | 29.6 µM (inactive) | 29.4 µM (inactive) | 20.2 µM (inactive) | – | 21.6 µM (inactive) | > 100 µM (inactive) | 14.3 µM (inactive) | – | 93.8 µM (inactive) | 12.9 µM (inactive) | 29.5 µM (inactive) | 29.1 µM (inactive) | – |
| CCSc1[nH]c(Nc2nc(-c3ccccc3)n(-c3ccccc3)n2)c(C(N)=O)c1C(N)=O | – | – | – | – | – | > 10 µM (inactive) | > 10 µM (inactive) | 9.62 µM (inactive) | – | > 10 µM (inactive) | > 10 µM (inactive) | – | > 10 µM (inactive) | > 10 µM (inactive) | > 10 µM (inactive) | > 10 µM (inactive) | – | – | > 10 µM (inactive) |
| O=C1OC(c2ccccc2)=N/C1=C\c1cccc2ccccc12 | > 100 µM (inactive) | > 100 µM (inactive) | > 100 µM (inactive) | > 100 µM (inactive) | > 100 µM (inactive) | > 100 µM (inactive) | > 100 µM (inactive) | > 100 µM (inactive) | – | – | > 100 µM (inactive) | – | – | > 100 µM (inactive) | > 100 µM (inactive) | > 100 µM (inactive) | > 100 µM (inactive) | > 100 µM (inactive) | – |
| O=C(CSCC(=O)N/N=C\c1ccc(O)c(O)c1O)N/N=C\c1ccc(O)c(O)c1O | 3.37 µM (inactive) | 23.3 µM (inactive) | 29.4 µM (inactive) | 19.1 µM (inactive) | 3.38 µM (inactive) | 1.69 µM (inactive) | 21.2 µM (inactive) | 2.24 µM (inactive) | – | 18.7 µM (inactive) | 2.18 µM (inactive) | 1.54 µM (inactive) | – | 23.3 µM (inactive) | 2.01 µM (inactive) | 18.5 µM (inactive) | 4.84 µM (inactive) | 5.87 µM (inactive) | – |
